Measured values from ChEMBL document CHEMBL5154930, “Design, Synthesis, and Biological Evaluations of DOT1L Peptide Mimetics Targeting the Protein-Protein Interactions between DOT1L and MLL-AF9/MLL-ENL” (J Med Chem, 2022).
The source made the active and inactive calls. No cut-off for these calls is given here. Non-standard residues stand in square brackets, D forms with d. Residues, ends and D or L forms follow the SMILES beside them. *: point of attachment. X1 = C[C@H](N*)c1nc2cccc(-c3ccccc3)c2[nH]1; Ala(cPent) = N[C@@H](CC1CCCC1)C(=O)O; Pentanoyl(4-Me) = CC(C)CCC(=O)*; Dap(Me) = CNC[C@H](N)C(=O)O

Legend:
[1] = system: MOLM-13; experiment: Inhibition of methylation of H3K79 in human MOLM-13 cells assessed as inhibition of methylation at HOXA5 gene cluster by chromatin immunoprecipitation assay; type: functional, cell-based
[2] = system: MOLM-13; experiment: Down regulation of GATA2 gene in human MOLM-13 cells by RNA-sequencing analysis; type: functional, cell-based
[3] = system: MOLM-13; experiment: Inhibition of methylation of H3K79 in human MOLM-13 cells assessed as inhibition of methylation at […] gene cluster by chromatin immunoprecipitation assay; type: functional, cell-based
[4] = system: KOPN-8; experiment: cells; conditions: Homo sapiens, KOPN-8, 192 h
Description: Anticancer activity against human KOPN-8 cells harbouring MLL-ENL assessed as inhibition of cell growth treated for 8 days measured by CCK-8 kit method

[5] = target: T1, Protein AF-9 (Homo sapiens, UniProt P42568); experiment: Binding affinity to MBP-tagged human recombinant AF9 (487 to 568 residues) incubated for 40 mins by measuring fluorescence polarization by microplate reader method
T1 sequence (P42568 whole entry): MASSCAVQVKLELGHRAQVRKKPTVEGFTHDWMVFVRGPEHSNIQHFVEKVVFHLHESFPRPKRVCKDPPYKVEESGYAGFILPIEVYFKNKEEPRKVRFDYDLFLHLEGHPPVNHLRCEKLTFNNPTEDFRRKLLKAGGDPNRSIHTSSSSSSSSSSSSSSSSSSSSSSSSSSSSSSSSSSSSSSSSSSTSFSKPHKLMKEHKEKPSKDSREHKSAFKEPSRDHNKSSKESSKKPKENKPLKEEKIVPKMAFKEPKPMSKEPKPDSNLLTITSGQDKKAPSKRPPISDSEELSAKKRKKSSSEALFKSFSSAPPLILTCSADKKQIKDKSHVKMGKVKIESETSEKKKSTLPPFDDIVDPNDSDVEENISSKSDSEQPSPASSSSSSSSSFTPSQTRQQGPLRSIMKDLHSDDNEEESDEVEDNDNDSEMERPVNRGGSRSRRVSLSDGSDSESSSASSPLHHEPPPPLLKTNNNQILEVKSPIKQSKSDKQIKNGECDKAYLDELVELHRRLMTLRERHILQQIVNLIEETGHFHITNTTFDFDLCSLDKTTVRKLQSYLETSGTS

[6] = Apparent permeability across apical to basolateral side in human Caco-2 cells; type: ADME, cell-based
[7] = system: MOLM-13; experiment: Inhibition of methylation of H3K79 in human MOLM-13 cells assessed as inhibition of methylation at HOXA9 gene cluster by chromatin immunoprecipitation assay; type: functional, cell-based
[8] = system: MOLM-13; experiment: Down regulation of MEIS1 gene in human MOLM-13 cells by RNA-sequencing analysis; type: functional, cell-based
[9] = system: MOLM-13; experiment: Down regulation of HPGD gene in human MOLM-13 cells by RNA-sequencing analysis; type: functional, cell-based
[10] = system: MOLM-13; experiment: Down regulation of CDKN1B gene in human MOLM-13 cells by RNA-sequencing analysis; type: functional, cell-based
[11] = system: MOLM-13; experiment: Inhibition of methylation of H3K79 in human MOLM-13 cells assessed as inhibition of methylation at HOXA13 gene cluster by chromatin immunoprecipitation assay; type: functional, cell-based
[12] = system: MOLM-13; experiment: Down regulation of […] gene in human MOLM-13 cells by RNA-sequencing analysis; type: functional, cell-based
[13] = Stability in human plasma assessed as compound remaining measured upto 1440 mins by HPLC analysis; type: ADME, cell-free; conditions: read-out: Stability
[14] = system: MOLM-13; experiment: Down regulation of RUNX1 gene in human MOLM-13 cells by RNA-sequencing analysis; type: functional, cell-based
[15] = system: MOLM-13; experiment: cells; conditions: Homo sapiens, MOLM-13, 216 h
Description: Anticancer activity against human MOLM-13 cells harbouring MLL-AF9 assessed as inhibition of cell growth treated for 9 days measured by CCK-8 kit method

[16] = system: MOLM-13; experiment: Inhibition of methylation of H3K79 in human MOLM-13 cells assessed as inhibition of methylation at HOXA4 gene cluster by chromatin immunoprecipitation assay; type: functional, cell-based
[17] = system: MOLM-13; experiment: Down regulation of CNOT6L gene in human MOLM-13 cells by RNA-sequencing analysis; type: functional, cell-based
[18] = system: MOLM-13; experiment: Down regulation of HOXA3 gene in human MOLM-13 cells by RNA-sequencing analysis; type: functional, cell-based
[19] = system: MOLM-13; experiment: cells; conditions: Homo sapiens, MOLM-13, 96 h
Description: Anticancer activity against human MOLM-13 cells harbouring MLL-AF9 assessed as inhibition of cell growth treated for 4 days measured by CCK-8 kit method

[20] = system: MOLM-13; experiment: cells; conditions: Homo sapiens, MOLM-13, 168 h
Description: Anticancer activity against human MOLM-13 cells harbouring MLL-AF9 assessed as inhibition of cell growth treated for 7 days measured by CCK-8 kit method

[21] = system: MOLM-13; experiment: Inhibition of methylation of H3K79 in human MOLM-13 cells assessed as inhibition of methylation at HOXA10 gene cluster by chromatin immunoprecipitation assay; type: functional, cell-based
[22] = system: MOLM-13; experiment: Inhibition of methylation of H3K79 in human MOLM-13 cells assessed as inhibition of methylation at HOXA11 gene cluster by chromatin immunoprecipitation assay; type: functional, cell-based
[23] = system: MOLM-13; experiment: cells; conditions: Homo sapiens, MOLM-13, 120 h
Description: Anticancer activity against human MOLM-13 cells harbouring MLL-AF9 assessed as inhibition of cell growth treated for 5 days measured by CCK-8 kit method

IC50 [4]: 100 nM
Ki [5]: 9 nM
Papp A→B [6]: 1.97 ×10⁻⁶ cm/s
remaining at 24 h [13]: 81.5%
IC50 [15]: 44 nM
IC50 [19]: 972 nM
IC50 [20]: 167 nM
IC50 [23]: 703 nM
Compound: CNC[C@H](NC(=O)[C@@H](NC(=O)[C@@H]1CCCN1C(=O)CCC(C)C)C(C)C)C(=O)N[C@@H](CC1CCCC1)C(=O)N[C@@H](C)c1nc2cccc(-c3ccccc3)c2[nH]1 ({Pentanoyl(4-Me)}-PV[Dap(Me)][Ala(cPent)]-X1)
inhibition [1]: Active
Activity [2]: Active
inhibition [3]: Active
inhibition [7]: Active
Activity [8]: Active
Activity [9]: Active
Activity [10]: Active
inhibition [11]: Active
Activity [12]: Active
Activity [14]: Active
inhibition [16]: Active
Activity [17]: Active
Activity [18]: Active
inhibition [21]: Active
inhibition [22]: Active
